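The compound was tested at five concentrations on cells cultured in 96-well plates, with a 48-hour exposure period. GI50 is the concentration that inhibits growth by half.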 The source made the active and inactive calls. Cut-off read from the data, not from the text of the source: active = GI50 up to about 1.1 µM and inactive = higher.
Columns and labels:
Assay in all cases: growth of human tumour cells (NCI), 48 h
786-0 = tested on: 786-0
A498 = tested on: A498
A549 = tested on: A549
ACHN = tested on: ACHN
BT-549 = tested on: BT-549
CCRF-CEM = tested on: CCRF-CEM
COLO 205 = tested on: COLO 205
DU-145 = tested on: DU-145
EKVX = tested on: EKVX
HCC 2998 = tested on: HCC 2998
HCT-116 = tested on: HCT-116
HCT-15 = tested on: HCT-15
HL-60 = tested on: HL-60
HOP-62 = tested on: HOP-62
HOP-92 = tested on: HOP-92
HT-29 = tested on: HT-29
Hs-578T = tested on: Hs-578T
IGROV-1 = tested on: IGROV-1
K562 = tested on: K562
KM12 = tested on: KM12
LOX IMVI = tested on: LOX IMVI
M14 = tested on: M14
MCF7 = tested on: MCF7
MDA-MB-231 = tested on: MDA-MB-231
MDA-N = tested on: MDA-N
Malme-3M = tested on: Malme-3M
NCI-H226 = tested on: NCI-H226
NCI-H23 = tested on: NCI-H23
NCI-H460 = tested on: NCI-H460
NCI-H522 = tested on: NCI-H522
NCI/ADR-RES = tested on: NCI/ADR-RES
OVCAR-3 = tested on: OVCAR-3
OVCAR-4 = tested on: OVCAR-4
OVCAR-5 = tested on: OVCAR-5
OVCAR-8 = tested on: OVCAR-8
RPMI-8226 = tested on: RPMI-8226
RXF 393 = tested on: RXF 393
SF-268 = tested on: SF-268
SF-295 = tested on: SF-295
SK-MEL-28 = tested on: SK-MEL-28
SK-MEL-2 = tested on: SK-MEL-2
SK-MEL-5 = tested on: SK-MEL-5
SK-OV-3 = tested on: SK-OV-3
SN12C = tested on: SN12C
SNB-19 = tested on: SNB-19
SNB-75 = tested on: SNB-75
SR = tested on: SR
SW-620 = tested on: SW-620
T47D = tested on: T47D
TK-10 = tested on: TK-10
U-251 = tested on: U-251
UACC-257 = tested on: UACC-257
UACC-62 = tested on: UACC-62
UO-31 = tested on: UO-31
CAKI-1 = tested on: CAKI-1
MOLT-4 = tested on: MOLT-4
PC-3 = tested on: PC-3
SF-539 = tested on: SF-539
MDA-MB-435 = tested on: MDA-MB-435

In the case of `CC1=NCC[N+]1(CCc1ccccc1)Cc1ccccc1` (stereo unspecified), the GI50 (786-0) is reported as > 100 µM (inactive), the GI50 (A498) is reported as 60.3 µM (inactive) and the GI50 (A549) is reported as 13.4 µM (inactive). The GI50 (ACHN) was > 100 µM (inactive), the GI50 (BT-549) was 33.6 µM (inactive) and the GI50 (CCRF-CEM) was 34.5 µM (inactive). For the same compound, the GI50 (COLO 205) was 5.93 µM (inactive), the GI50 (DU-145) was > 100 µM (inactive) and the GI50 (EKVX) was > 100 µM (inactive). The GI50 (HCC 2998) was 35.7 µM (inactive), the GI50 (HCT-116) was 49 µM (inactive) and the GI50 (HCT-15) was greater than 100 µM. For the same compound, the GI50 (HL-60) was 16.6 µM (inactive), the GI50 (HOP-62) was > 100 µM (inactive) and the GI50 (HOP-92) was 4.78 µM (inactive). The GI50 (HT-29) was 12.5 µM (inactive), the GI50 (Hs-578T) was 16 µM (inactive) and the GI50 (IGROV-1) was 17.3 µM (inactive). For the same compound, the GI50 (K562) was 2.94 µM (inactive), the GI50 (KM12) was 47.2 µM (inactive) and the GI50 (LOX IMVI) was 44.9 µM (inactive). The GI50 (M14) was 50.5 µM (inactive), the GI50 (MCF7) was 47.9 µM (inactive) and the GI50 (MDA-MB-231) was 62.4 µM (inactive). For the same compound, the GI50 (MDA-N) was 46.3 µM (inactive), the GI50 (Malme-3M) was 20.4 µM (inactive) and the GI50 (NCI-H226) was 65 µM (inactive). The GI50 (NCI-H23) was 19.8 µM (inactive), the GI50 (NCI-H460) was 34.8 µM (inactive) and the GI50 (NCI-H522) was 11.6 µM (inactive). For the same compound, the GI50 (NCI/ADR-RES) was > 100 µM (inactive), the GI50 (OVCAR-3) was 5.71 µM (inactive) and the GI50 (OVCAR-4) was 37.2 µM (inactive). For the same compound, the GI50 (OVCAR-5) was 47.4 µM (inactive), the GI50 (OVCAR-8) was 37.3 µM (inactive) and the GI50 (RPMI-8226) was 13.7 µM (inactive). The GI50 (RXF 393) was > 100 µM (inactive), the GI50 (SF-268) was 27.6 µM (inactive) and the GI50 (SF-295) was > 100 µM (inactive). For the same compound, the GI50 (SK-MEL-28) was 64.6 µM (inactive), the GI50 (SK-MEL-2) was 27.7 µM (inactive) and the GI50 (SK-MEL-5) was 14.7 µM (inactive). The GI50 (SK-OV-3) was > 100 µM (inactive), the GI50 (SN12C) was 45.5 µM (inactive) and the GI50 (SNB-19) was 71.9 µM (inactive). The GI50 (SNB-75) was > 100 µM (inactive), the GI50 (SR) was 13.4 µM (inactive) and the GI50 (SW-620) was > 100 µM (inactive). For the same compound, the GI50 (T47D) was > 100 µM (inactive), the GI50 (TK-10) was 48.1 µM (inactive) and the GI50 (U-251) was 29.3 µM (inactive). For the same compound, the GI50 (UACC-257) was 19.3 µM (inactive), the GI50 (UACC-62) was 75.2 µM (inactive) and the GI50 (UO-31) was > 100 µM (inactive).
With `O=C1CCC[C@]2(CCC[C@@H](O)C2)N1` the GI50 (786-0) was > 100 µM (inactive), the GI50 (A549) was > 100 µM (inactive) and the GI50 (ACHN) was > 100 µM (inactive). The GI50 (BT-549) was > 100 µM (inactive), the GI50 (CAKI-1) was > 100 µM (inactive) and the GI50 (CCRF-CEM) was > 100 µM (inactive). For the same compound, the GI50 (COLO 205) was > 100 µM (inactive), the GI50 (DU-145) was > 100 µM (inactive) and the GI50 (EKVX) was > 100 µM (inactive). The GI50 (HCC 2998) was > 100 µM (inactive), the GI50 (HCT-116) was > 100 µM (inactive) and the GI50 (HCT-15) was greater than 100 µM. For the same compound, the GI50 (HL-60) was > 100 µM (inactive), the GI50 (HOP-62) was > 100 µM (inactive) and the GI50 (HT-29) was > 100 µM (inactive). The GI50 (Hs-578T) was > 100 µM (inactive), the GI50 (IGROV-1) was > 100 µM (inactive) and the GI50 (K562) was > 100 µM (inactive). For the same compound, the GI50 (KM12) was > 100 µM (inactive), the GI50 (LOX IMVI) was > 100 µM (inactive) and the GI50 (M14) was > 100 µM (inactive). The GI50 (MCF7) was > 100 µM (inactive), the GI50 (MDA-MB-231) was > 100 µM (inactive) and the GI50 (MDA-N) was > 100 µM (inactive). The GI50 (MOLT-4) was > 10 µM (inactive), the GI50 (Malme-3M) was > 100 µM (inactive) and the GI50 (NCI-H460) was > 100 µM (inactive). For the same compound, the GI50 (NCI-H522) was > 100 µM (inactive), the GI50 (NCI/ADR-RES) was > 100 µM (inactive) and the GI50 (OVCAR-3) was > 100 µM (inactive). For the same compound, the GI50 (OVCAR-4) was > 100 µM (inactive), the GI50 (OVCAR-5) was > 100 µM (inactive) and the GI50 (OVCAR-8) was > 100 µM (inactive). The GI50 (PC-3) was > 100 µM (inactive), the GI50 (RXF 393) was > 100 µM (inactive) and the GI50 (SF-268) was > 100 µM (inactive). For the same compound, the GI50 (SF-295) was > 100 µM (inactive), the GI50 (SF-539) was > 100 µM (inactive) and the GI50 (SK-MEL-2) was > 100 µM (inactive). The GI50 (SK-MEL-5) was > 100 µM (inactive), the GI50 (SK-OV-3) was > 100 µM (inactive) and the GI50 (SN12C) was > 100 µM (inactive). The GI50 (SNB-19) was > 100 µM (inactive), the GI50 (SNB-75) was > 100 µM (inactive) and the GI50 (T47D) was > 100 µM (inactive). For the same compound, the GI50 (TK-10) was > 100 µM (inactive) and the GI50 (UACC-257) was > 100 µM (inactive).
With `O=C(c1ccccc1)N1CCN(C(=S)NC2CCCCC2)C1=S` the GI50 (786-0) was 21.8 µM (inactive), the GI50 (A498) was 19 µM (inactive) and the GI50 (A549) was 13.4 µM (inactive). The GI50 (ACHN) was 24.3 µM (inactive), the GI50 (BT-549) was 17.1 µM (inactive) and the GI50 (CAKI-1) was 24 µM (inactive). For the same compound, the GI50 (CCRF-CEM) was 12.2 µM (inactive), the GI50 (COLO 205) was 18.5 µM (inactive) and the GI50 (DU-145) was 21.8 µM (inactive). The GI50 (EKVX) was 16.1 µM (inactive), the GI50 (HCC 2998) was 16.4 µM (inactive) and the GI50 (HCT-116) was 16.1 µM (inactive). The GI50 (HCT-15) was 15.8 µM, the GI50 (HL-60) was 21.9 µM (inactive) and the GI50 (HOP-62) was 18 µM (inactive). For the same compound, the GI50 (HOP-92) was 15.5 µM (inactive), the GI50 (HT-29) was 20.2 µM (inactive) and the GI50 (Hs-578T) was 19 µM (inactive). The GI50 (IGROV-1) was 24.2 µM (inactive), the GI50 (K562) was 33.3 µM (inactive) and the GI50 (KM12) was 16 µM (inactive). For the same compound, the GI50 (LOX IMVI) was 16 µM (inactive), the GI50 (M14) was 16.8 µM (inactive) and the GI50 (MCF7) was 22.8 µM (inactive). The GI50 (MDA-MB-231) was 7.03 µM (inactive), the GI50 (MDA-MB-435) was 19.5 µM (inactive) and the GI50 (MDA-N) was 19.4 µM (inactive). The GI50 (MOLT-4) was 17.5 µM (inactive), the GI50 (Malme-3M) was 15.5 µM (inactive) and the GI50 (NCI-H226) was 14.7 µM (inactive). For the same compound, the GI50 (NCI-H23) was 15.9 µM (inactive), the GI50 (NCI-H460) was 21.4 µM (inactive) and the GI50 (NCI-H522) was 15.8 µM (inactive). For the same compound, the GI50 (NCI/ADR-RES) was 17.7 µM (inactive), the GI50 (OVCAR-3) was 15.6 µM (inactive) and the GI50 (OVCAR-4) was 18.9 µM (inactive). The GI50 (OVCAR-5) was 21.7 µM (inactive), the GI50 (OVCAR-8) was 17 µM (inactive) and the GI50 (SF-268) was 16.8 µM (inactive). For the same compound, the GI50 (SF-295) was 20.9 µM (inactive), the GI50 (SF-539) was 13.5 µM (inactive) and the GI50 (SK-MEL-28) was 14.9 µM (inactive). The GI50 (SK-MEL-2) was 4.58 µM (inactive), the GI50 (SK-MEL-5) was 17.4 µM (inactive) and the GI50 (SK-OV-3) was 25.7 µM (inactive). For the same compound, the GI50 (SN12C) was 17.8 µM (inactive), the GI50 (SNB-75) was 11.1 µM (inactive) and the GI50 (SR) was 28.5 µM (inactive). The GI50 (SW-620) was 21.6 µM (inactive), the GI50 (T47D) was 15.8 µM (inactive) and the GI50 (TK-10) was 25.8 µM (inactive). For the same compound, the GI50 (U-251) was 9.89 µM (inactive), the GI50 (UACC-257) was 18.7 µM (inactive) and the GI50 (UACC-62) was 19.3 µM (inactive). For the same compound, the GI50 (UO-31) was 16.1 µM (inactive).

Source: ChEMBL document CHEMBL1201862, “PubChem BioAssay data set” (2004)
